The results in this text go back to patent US8044211B2 (Chroma Therapeutics Ltd., priority 2006, dated 2011).

Some results are limits rather than exact numbers.

Test [1] deals with T1, p38 MAP Kinase a (Homo sapiens, UniProt Q16539).
T1 construct: purchased Upstate (Dundee UK)
The test is described as follows: p38 MAP Kinase activity, radiometric filter-binding assay (Upstate). It is filed as biochemical. The conditions noted are these: IC50 range; ATP at or close to Km; read-out: Inhibitor activity versus p38 MAPKa. Summed up: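 Human p38 MAP kinase α (5-10 mU) with 0.33 mg/mL myelin basic protein, 25 mM Tris pH 7.5, 0.002 mM EGTA, 10 mM Mg acetate and [γ-33P]ATP at or near Km; 40 min at RT. Phosphoric acid stop, P30 filter binding and scintillation counting; IC50 from 9-step ⅓-log dilutions from 10 μM top concentration, duplicates.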

The test system of test [2] is THP-1 TNFα release. The test is described as follows: LPS-stimulation of THP-1 cells, TNF-α by ELISA. It is filed as cell-based. The settings on record: Homo sapiens, THP-1; IC50 range; LPS 1 μg/ml, 6 hrs; read-out: Inhibitor activity versus THP-1 TNFα release. Put shortly: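 THP-1 cells (4×10^4/well) rested 16 h, preincubated 2 h with inhibitor, then stimulated with 1 μg/ml E. coli LPS for 6 h at 37 °C, 5% CO2. TNF-α quantified in cell-free supernatants by sandwich ELISA.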

The test system of test [3] is human whole blood TNFα release. The test is described as follows: LPS-stimulation of human whole blood, TNF-α by ELISA. Type of test: cell-based. The settings on record: IC50 range, LPS 100 ng/ml, 6 hrs, read-out: Inhibitor activity versus human whole blood TNFα release. The method, then:
Whole blood was taken by venous puncture using heparinised vacutainers (Becton Dickinson) and diluted in an equal volume of RPMI 1640 tissue culture media (Sigma). 100 μl was plated in V-bottomed 96 well tissue culture treated plates. 2 hrs after the addition of the inhibitor in 100 μl of RPMI 1640 media, the blood was stimulated with LPS (E. coli strain 005:B5, Sigma) at a final concentration of 100 ng/ml and incubated at 37° C. in 5% CO2 for 6 hrs. TNF-α levels were measured from cell-free supernatants by sandwich ELISA (R&D Systems #QTA00B)
(ELISA stands for enzyme-linked immunosorbent assay.)

T1 sequence (Q16539 whole entry): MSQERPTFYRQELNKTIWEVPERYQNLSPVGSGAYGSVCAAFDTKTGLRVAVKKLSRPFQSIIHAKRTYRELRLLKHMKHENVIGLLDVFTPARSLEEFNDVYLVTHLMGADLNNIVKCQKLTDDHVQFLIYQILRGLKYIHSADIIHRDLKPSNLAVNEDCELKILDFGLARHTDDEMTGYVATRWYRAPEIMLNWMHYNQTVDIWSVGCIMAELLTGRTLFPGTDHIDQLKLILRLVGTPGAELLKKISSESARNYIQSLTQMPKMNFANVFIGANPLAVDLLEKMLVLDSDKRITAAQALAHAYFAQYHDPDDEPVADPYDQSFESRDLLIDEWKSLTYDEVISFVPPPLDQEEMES

As to `Nc1c(C(=O)c2ccc(F)cc2F)ccc(=O)n1-c1c(F)cc(OCCCN[C@@H](C(=O)OC2CCCC2)c2ccccc2)cc1F` [Example 42, Cyclopentyl (2R)-[(3-{4-[6-amino-5-(2,4-difluorobenzoyl)-2-oxopyridin-1 (2H)-yl]-3,5-difluorophenoxy}propyl)amino](phenyl)acetate], the IC50 is less than 100 nM in test [1], less than 100 nM in test [2] and 100 to 1000 nM in test [3].
With `CC(C)C[C@H](NCCCOc1cc(F)c(-n2c(N)c(C(=O)c3ccc(F)cc3F)ccc2=O)c(F)c1)C(=O)OCCN(C)C` [Example 46, 2-(Dimethylamino)ethyl N-(3-{4-[6-amino-5-(2,4-difluorobenzoyl)-2-oxopyridin-1(2H)-yl]-3,5-difluorophenoxy}propyl)-L-leucinate], the IC50 in test [1] was 100 to 1000 nM; in test [2], less than 100 nM; in test [3] it was 100 to 1000 nM.
With `CC(C)C[C@H](NCCCOc1cc(F)c(-n2c(N)c(C(=O)c3ccc(F)cc3F)ccc2=O)c(F)c1)C(=O)OCCN1CCOCC1` [Example 47, 2-Morpholin-4-ylethyl N-(3-{4-[6-amino-5-(2,4-difluorobenzoyl)-2-oxopyridin-1(2H)-yl]-3,5-difluorophenoxy}propyl)-L-leucinate], the results for the IC50 in test [1], in test [2] and in test [3] were less than 100 nM, less than 100 nM and 100 to 1000 nM, respectively.
Take `Nc1c(C(=O)c2ccc(F)cc2F)ccc(=O)n1-c1c(F)cc(OCCCN[C@H](C(=O)OC2CCCC2)C2CCCCC2)cc1F` [Example 48, Cyclopentyl(2S)-[(3-{4-[6-amino-5-(2,4-difluorobenzoyl)-2-oxopyridin-1(2H)-yl]-3,5-difluorophenoxy}propyl)amino](cyclohexyl)acetate]: the figures for the IC50 in test [1], in test [2] and in test [3] were less than 100 nM, less than 100 nM and more than 1000 nM, respectively.
Regarding `CC(C)(C)OC(=O)[C@@H](NCCCOc1cc(F)c(-n2c(N)c(C(=O)c3ccc(F)cc3F)ccc2=O)c(F)c1)C1CCCCC1` [Example 49, tert-Butyl (2S)-[(3-{4-[6-amino-5-(2,4-difluorobenzoyl)-2-oxopyridin-1(2H)-yl]-3,5-difluorophenoxy}propyl)amino](cyclohexyl)acetate], the results for the IC50 in test [1], in test [2] and in test [3] were less than 100 nM, 100 to 1000 nM and more than 1000 nM, respectively.
For `NCC[C@H](NCCCOc1cc(F)c(-n2c(N)c(C(=O)c3ccc(F)cc3F)ccc2=O)c(F)c1)C(=O)OC1CCCC1` [Example 52, Cyclopentyl(2S)-4-amino-2-[(3-{4-[6-amino-5-(2,4-difluorobenzoyl)-2-oxopyridin-1(2H)-yl]-3,5-difluorophenoxy}propyl)amino]butanoate], the IC50 in test [1] is less than 100 nM; in test [2] it was less than 100 nM; in test [3] it was 100 to 1000 nM.
Regarding `CC(C)C[C@H](NCCCCCOc1cc(F)c(-n2c(N)c(C(=O)c3ccc(F)cc3F)ccc2=O)c(F)c1)C(=O)OC1CCCC1` [Example 53, Cyclopentyl N-(5-{4-[6-amino-5-(2,4-difluorobenzoyl)-2-oxopyridin-1(2H)-yl]-3,5-difluorophenoxy}pentyl)-L-leucinate], the IC50 in test [1] is less than 100 nM; in test [2] it was less than 100 nM; in test [3], 100 to 1000 nM.
For `CC(C)C[C@H](NCCc1ccc(-n2c(N)c(C(=O)c3ccc(F)cc3)ccc2=O)cc1)C(=O)OC1CCCC1` [Example 57, Cyclopentyl N-[2-(4-{6-amino-5-[(4-fluorophenyl)carbonyl]-2-oxopyridin-1(2H)-yl}phenyl)ethyl]-L-leucinate], the values for the IC50 in test [1], in test [2] and in test [3] were 100 to 1000 nM, less than 100 nM and 100 to 1000 nM, respectively.
Consider `CC(C)C[C@H](NCCc1ccc(-n2c(N)c(C(=O)c3ccc(F)cc3)ccc2=O)cc1)C(=O)OC(C)(C)C` [Example 58, tert-Butyl N-[2-(4-{6-amino-5-[(4-fluorophenyl)carbonyl]-2-oxopyridin-1(2H)-yl}phenyl)ethyl]-L-leucinate], for which the figures for the IC50 in test [1], in test [2] and in test [3] were 100 to 1000 nM, less than 100 nM and 100 to 1000 nM, respectively.
In the case of `CC(C)C[C@H](NCCc1ccc(-n2c(N)c(C(=O)c3ccc(F)cc3F)ccc2=O)cc1)C(=O)OC1CCCC1` [Example 59, Cyclopentyl N-[2-(4-{6-amino-5-[(2,4-difluorophenyl)carbonyl]-2-oxopyridin-1(2H)-yl}phenyl)ethyl]-L-leucinate], the values for the IC50 in test [1], in test [2] and in test [3] were 100 to 1000 nM, less than 100 nM and 100 to 1000 nM, respectively.
For `CC(C)C[C@H](NCCCc1ccc(-n2c(N)c(C(=O)c3ccc(F)cc3)ccc2=O)cc1)C(=O)OC1CCCC1` [Example 67, Cyclopentyl N-[3-(4-{6-amino-5-[(4-fluorophenyl)carbonyl]-2-oxopyridin-1(2H)-yl}phenyl)propyl]-L-leucinate], the IC50 in test [1] is 100 to 1000 nM; in test [2], 100 to 1000 nM; in test [3], more than 1000 nM.
